Results: PMC7492732, “Offloading Role of a Discrete Thioesterase in Type II Polyketide Biosynthesis” (mBio, 2020)

Target: T1, FscTE (Streptomyces sp. FR-008, UniProt Q6W5Q5)
T1 construct: His6 tag, pET28a, expressed in E. coli BL21(DE3)/pGro7
T1 sequence (Q6W5Q5 1-285): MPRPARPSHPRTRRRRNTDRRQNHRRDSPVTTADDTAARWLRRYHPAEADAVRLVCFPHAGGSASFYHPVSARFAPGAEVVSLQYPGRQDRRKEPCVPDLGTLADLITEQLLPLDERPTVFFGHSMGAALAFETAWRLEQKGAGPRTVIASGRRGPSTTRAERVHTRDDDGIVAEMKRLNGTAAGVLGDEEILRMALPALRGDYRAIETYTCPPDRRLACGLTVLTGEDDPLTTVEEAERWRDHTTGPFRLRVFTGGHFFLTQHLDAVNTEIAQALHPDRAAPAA
Assay: DTNB spectrophotometric assay at […] nm
Type: biochemical

For CCCC(=O)SCCNC(C)=O [butyryl-SNAC], the “DTNB spectrophotometric assay at 412 nm” value was “A similar phenomenon was observed when butyryl-SNAC was used as a substrate”.
